In ChEMBL document CHEMBL1140726, “Discovery and biological evaluation of 5-aryl-2-furfuramides, potent and selective blockers of the Nav1.8 sodium channel with efficacy in models of neuropathic and inflammatory pain” (J Med Chem, 2008):
pIC50: −log10 of the molar value. Each block holds one compound with its values, some of them ahead of it.

Key:
[1] = molecular target: Sodium channel protein type 10 subunit alpha (Mus musculus, UniProt Q6QIY3); experiment: Inhibition of mouse recombinant Nav 1.8 channel expressed in HEK293 cells by isotopic efflux assay; type: cell-based
[2] = Intrinsic clearance in Sprague-Dawley rat microsomes after 1 hr; type: ADME, Liver, Microsome
[3] = Activity at rat dorsal root ganglion in inactivated state with prepulse voltage of -40 mV assessed as blockade of TTx-resistant sodium current at 0.3 uM by whole-cell patch clamp technique; type: functional
[4] = Activity at rat dorsal root ganglion in inactivated state with prepulse voltage of -40 mV assessed as blockade of TTx-resistant sodium current at 0.1 uM by whole-cell patch clamp technique; type: functional
[5] = Activity at rat dorsal root ganglion in resting state with prepulse voltage of -100 mV assessed as blockade of TTx-resistant sodium current at 0.3 uM by whole-cell patch clamp technique; type: functional
[6] = Activity at rat dorsal root ganglion in resting state with prepulse voltage of -100 mV assessed as blockade of TTx-resistant sodium current at 0.1 uM by whole-cell patch clamp technique; type: functional
[7] = molecular target: T1, Sodium channel protein type 10 subunit alpha (Homo sapiens, UniProt Q9Y5Y9); experiment: Activity at human recombinant Nav 1.8 channel expressed in HEK293 cells in inactivated state with prepulse voltage of -40 mV assessed as blockade of TTx-resistant sodium current at 0.03 uM; type: cell-based
[8] = molecular target: T1, Sodium channel protein type 10 subunit alpha; experiment: Activity at human recombinant Nav 1.8 channel expressed in HEK293 cells in inactivated state with prepulse voltage of -40 mV assessed as blockade of TTx-resistant sodium current at 0.01 uM; type: cell-based
[9] = molecular target: T1, Sodium channel protein type 10 subunit alpha; experiment: Activity at human recombinant Nav 1.8 channel expressed in HEK293 cells in resting state with prepulse voltage of -100 mV assessed as blockade of TTx-resistant sodium current at 0.03 uM; type: cell-based
[10] = molecular target: T1, Sodium channel protein type 10 subunit alpha; experiment: Activity at human recombinant Nav 1.8 channel expressed in HEK293 cells in resting state with prepulse voltage of -100 mV assessed as blockade of TTx-resistant sodium current at 0.01 uM; type: cell-based
[11] = molecular target: T1, Sodium channel protein type 10 subunit alpha; experiment: Inhibition of human recombinant Nav 1.8 channel expressed in HEK293 cells at 0.03 uM; type: cell-based
[12] = molecular target: T1, Sodium channel protein type 10 subunit alpha; experiment: Inhibition of human recombinant Nav 1.8 channel expressed in HEK293 cells at 0.01 uM; type: cell-based
[13] = molecular target: Sodium channel protein type 2 subunit alpha (Homo sapiens) (UniProt Q99250); experiment: Inhibition of human Nav1.2 channel at 3 uM
[14] = molecular target: Sodium channel protein type 2 subunit alpha (Homo sapiens) (UniProt Q99250); experiment: Inhibition of human Nav1.2 channel at 10 uM
[15] = molecular target: Sodium channel protein type 3 subunit alpha (Homo sapiens) (UniProt Q9NY46); experiment: Inhibition of human Nav1.3 channel at 3 uM
[16] = molecular target: Sodium channel protein type 3 subunit alpha (Homo sapiens) (UniProt Q9NY46); experiment: Inhibition of human Nav1.3 channel at 10 uM
[17] = molecular target: T2, Nav1.5 (sodium channel protein type 5 subunit alpha) (Homo sapiens, UniProt Q14524); experiment: Inhibition of human Nav1.5 channel at 3 uM
[18] = molecular target: Sodium channel protein type 5 subunit alpha (Homo sapiens, UniProt Q14524); experiment: (§1) Inhibition of human Nav1.5 channel at 1 uM
[19] = molecular target: T2, Nav1.5 (sodium channel protein type 5 subunit alpha); experiment: Inhibition of human Nav1.5 channel at 10 uM
[20] = molecular target: Sodium channel protein type 9 subunit alpha (Homo sapiens) (UniProt Q15858); experiment: Inhibition of human Nav1.7 channel at 3 uM
[21] = molecular target: Sodium channel protein type 9 subunit alpha (Homo sapiens) (UniProt Q15858); experiment: Inhibition of human Nav1.7 channel at 10 uM
[22] = molecular target: Voltage-gated inwardly rectifying potassium channel KCNH2 (Homo sapiens, UniProt Q12809); experiment: Inhibition of hERG potassium channel expressed in CHO cells by isotope efflux assay
[23] = Clearance in Sprague-Dawley rat plasma; type: ADME, organism-based
[24] = Half life in Sprague-Dawley rat; type: ADME, organism-based; conditions: in vivo
[25] = Cmax in Sprague-Dawley rat at 10 mg/kg, ip; type: ADME, organism-based; parameters: dose 10 mg/kg, route intraperitoneal; conditions: in vivo
[26] = Volume of distribution at steady state in Sprague-Dawley rat; type: ADME, organism-based; conditions: in vivo, read-out: Vdss
[27] = Ratio of drug level in brain to plasma in Sprague-Dawley rat; type: ADME
[28] = Protein binding in Sprague-Dawley rat plasma; type: ADME, cell-free; conditions: read-out: PPB (converted)
[29] = Oral bioavailability in Sprague-Dawley rat; type: ADME, organism-based; conditions: in vivo
[30] = Bioavailability in Sprague-Dawley rat at 10 mg/kg, ip; type: ADME, organism-based; conditions: in vivo
Rattus norvegicus [31] = experiment: Antinociceptive activity in ip dosed Sprague-Dawley rat assessed as attenuation of mechanical allodynia in chung model of neuropathic pain; type: functional
Rattus norvegicus [32] = experiment: Antinociceptive activity in ip dosed Sprague-Dawley rat assessed as reduction of mechanical allodynia in Bennett model of neuropathic pain; type: functional; parameters: Activity: scale not given: the % may be the effect or the level left
Rattus norvegicus [33] = experiment: Antinociceptive activity in ip dosed Sprague-Dawley rat assessed as reduction of CFA-induced thermal hyperalgesia; type: functional; parameters: Activity: scale not given: the % may be the effect or the level left
[34] = molecular target: T1, Sodium channel protein type 10 subunit alpha; experiment: Inhibition of human recombinant Nav 1.8 channel expressed in HEK293 cells; type: cell-based
Translocator protein [35] = molecular target: T3, Translocator protein (Homo sapiens, UniProt P30536); experiment: Binding affinity to peripheral benzodiazepine receptor at 10 uM
Translocator protein [36] = molecular target: T3, Translocator protein; experiment: Binding affinity to peripheral benzodiazepine receptor
[37] = Aqueous solubility of the compound; type: physicochemical
[38] = Oral bioavailability in Sprague-Dawley rat at 10 mg/kg; type: ADME, organism-based; conditions: in vivo
[39] = Activity at rat dorsal root ganglion in inactivated state with prepulse voltage of -40 mV assessed as blockade of TTx-resistant sodium current at 1 uM by whole-cell patch clamp technique; type: functional
[40] = Activity at rat dorsal root ganglion in resting state with prepulse voltage of -100 mV assessed as blockade of TTx-resistant sodium current at 1 uM by whole-cell patch clamp technique; type: functional
[41] = molecular target: T1, Sodium channel protein type 10 subunit alpha; experiment: Activity at human recombinant Nav 1.8 channel expressed in HEK293 cells in inactivated state with prepulse voltage of -40 mV assessed as blockade of TTx-resistant sodium current at 0.1 uM; type: cell-based
[42] = molecular target: T1, Sodium channel protein type 10 subunit alpha; experiment: Activity at human recombinant Nav 1.8 channel expressed in HEK293 cells in inactivated state with prepulse voltage of -40 mV assessed as blockade of TTx-resistant sodium current at 1 uM; type: cell-based
[43] = molecular target: T1, Sodium channel protein type 10 subunit alpha; experiment: Activity at human recombinant Nav 1.8 channel expressed in HEK293 cells in resting state with prepulse voltage of -100 mV assessed as blockade of TTx-resistant sodium current at 0.1 uM; type: cell-based
[44] = molecular target: T1, Sodium channel protein type 10 subunit alpha; experiment: Activity at human recombinant Nav 1.8 channel expressed in HEK293 cells in resting state with prepulse voltage of -100 mV assessed as blockade of TTx-resistant sodium current at 1 uM; type: cell-based
[45] = molecular target: T1, Sodium channel protein type 10 subunit alpha; experiment: Inhibition of human recombinant Nav 1.8 channel expressed in HEK293 cells at 0.1 uM; type: cell-based
[46] = molecular target: T1, Sodium channel protein type 10 subunit alpha; experiment: Inhibition of human recombinant Nav 1.8 channel expressed in HEK293 cells at 1 uM; type: cell-based
[47] = molecular target: Sodium channel protein type 2 subunit alpha (Homo sapiens) (UniProt Q99250); experiment: Inhibition of human Nav1.2 channel at 1 uM
[48] = molecular target: Sodium channel protein type 3 subunit alpha (Homo sapiens) (UniProt Q9NY46); experiment: Inhibition of human Nav1.3 channel at 1 uM
[49] = molecular target: T2, Nav1.5 (sodium channel protein type 5 subunit alpha); experiment: as §1; conditions: human
[50] = Rattus norvegicus, Sprague-Dawley, ip

T2 sequence (Q14524 whole entry): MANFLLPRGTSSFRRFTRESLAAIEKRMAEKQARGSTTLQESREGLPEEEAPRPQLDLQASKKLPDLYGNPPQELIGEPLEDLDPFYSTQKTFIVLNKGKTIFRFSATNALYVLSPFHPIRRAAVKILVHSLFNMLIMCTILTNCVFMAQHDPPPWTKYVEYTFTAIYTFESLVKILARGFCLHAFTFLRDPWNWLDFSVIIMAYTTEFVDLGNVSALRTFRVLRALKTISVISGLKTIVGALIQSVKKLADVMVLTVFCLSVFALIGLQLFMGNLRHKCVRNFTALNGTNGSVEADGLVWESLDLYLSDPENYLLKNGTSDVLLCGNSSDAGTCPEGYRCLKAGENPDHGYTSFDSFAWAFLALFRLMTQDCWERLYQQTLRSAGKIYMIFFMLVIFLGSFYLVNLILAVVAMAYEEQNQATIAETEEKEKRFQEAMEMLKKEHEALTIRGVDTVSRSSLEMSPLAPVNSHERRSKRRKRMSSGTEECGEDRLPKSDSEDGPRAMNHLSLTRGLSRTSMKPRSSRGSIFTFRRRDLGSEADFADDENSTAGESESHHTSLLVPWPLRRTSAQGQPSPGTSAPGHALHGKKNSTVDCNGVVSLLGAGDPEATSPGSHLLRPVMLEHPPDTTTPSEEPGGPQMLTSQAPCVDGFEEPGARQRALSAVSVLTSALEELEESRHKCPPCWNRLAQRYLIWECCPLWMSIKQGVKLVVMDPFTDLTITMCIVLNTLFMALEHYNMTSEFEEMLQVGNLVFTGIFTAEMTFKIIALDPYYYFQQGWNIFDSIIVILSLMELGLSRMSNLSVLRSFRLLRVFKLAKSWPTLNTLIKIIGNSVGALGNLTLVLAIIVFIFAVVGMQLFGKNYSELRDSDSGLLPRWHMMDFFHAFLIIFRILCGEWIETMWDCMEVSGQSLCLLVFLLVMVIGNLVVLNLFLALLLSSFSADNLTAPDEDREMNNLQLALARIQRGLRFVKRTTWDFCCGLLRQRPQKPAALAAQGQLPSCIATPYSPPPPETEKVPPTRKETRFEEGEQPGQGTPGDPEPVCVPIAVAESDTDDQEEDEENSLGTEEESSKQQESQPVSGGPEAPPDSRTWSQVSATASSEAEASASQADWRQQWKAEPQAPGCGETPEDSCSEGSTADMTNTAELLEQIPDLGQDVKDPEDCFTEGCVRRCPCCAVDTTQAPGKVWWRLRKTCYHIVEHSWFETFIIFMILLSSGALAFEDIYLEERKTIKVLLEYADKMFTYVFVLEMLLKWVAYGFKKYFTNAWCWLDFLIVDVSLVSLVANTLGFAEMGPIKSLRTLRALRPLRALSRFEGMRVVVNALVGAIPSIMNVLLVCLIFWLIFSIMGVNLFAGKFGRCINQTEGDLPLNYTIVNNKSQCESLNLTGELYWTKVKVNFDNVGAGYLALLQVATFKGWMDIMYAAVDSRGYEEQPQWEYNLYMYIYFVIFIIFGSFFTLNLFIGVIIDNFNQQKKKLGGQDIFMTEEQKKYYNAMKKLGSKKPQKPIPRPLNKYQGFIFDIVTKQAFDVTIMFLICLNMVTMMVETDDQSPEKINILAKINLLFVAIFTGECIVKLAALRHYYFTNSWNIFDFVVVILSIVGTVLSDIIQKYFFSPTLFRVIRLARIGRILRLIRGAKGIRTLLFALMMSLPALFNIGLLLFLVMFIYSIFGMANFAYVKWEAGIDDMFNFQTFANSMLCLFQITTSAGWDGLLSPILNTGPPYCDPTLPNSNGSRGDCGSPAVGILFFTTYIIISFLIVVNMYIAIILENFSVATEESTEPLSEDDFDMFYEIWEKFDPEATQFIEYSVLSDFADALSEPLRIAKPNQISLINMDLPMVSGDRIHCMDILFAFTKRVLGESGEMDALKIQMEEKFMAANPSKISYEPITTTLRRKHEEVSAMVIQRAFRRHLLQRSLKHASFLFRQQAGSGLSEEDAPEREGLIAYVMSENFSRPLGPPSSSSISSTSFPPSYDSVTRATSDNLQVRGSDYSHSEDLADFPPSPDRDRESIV
Sequence of Sodium channel protein type 3 subunit alpha (Homo sapiens) (Q9NY46 whole entry, looked up): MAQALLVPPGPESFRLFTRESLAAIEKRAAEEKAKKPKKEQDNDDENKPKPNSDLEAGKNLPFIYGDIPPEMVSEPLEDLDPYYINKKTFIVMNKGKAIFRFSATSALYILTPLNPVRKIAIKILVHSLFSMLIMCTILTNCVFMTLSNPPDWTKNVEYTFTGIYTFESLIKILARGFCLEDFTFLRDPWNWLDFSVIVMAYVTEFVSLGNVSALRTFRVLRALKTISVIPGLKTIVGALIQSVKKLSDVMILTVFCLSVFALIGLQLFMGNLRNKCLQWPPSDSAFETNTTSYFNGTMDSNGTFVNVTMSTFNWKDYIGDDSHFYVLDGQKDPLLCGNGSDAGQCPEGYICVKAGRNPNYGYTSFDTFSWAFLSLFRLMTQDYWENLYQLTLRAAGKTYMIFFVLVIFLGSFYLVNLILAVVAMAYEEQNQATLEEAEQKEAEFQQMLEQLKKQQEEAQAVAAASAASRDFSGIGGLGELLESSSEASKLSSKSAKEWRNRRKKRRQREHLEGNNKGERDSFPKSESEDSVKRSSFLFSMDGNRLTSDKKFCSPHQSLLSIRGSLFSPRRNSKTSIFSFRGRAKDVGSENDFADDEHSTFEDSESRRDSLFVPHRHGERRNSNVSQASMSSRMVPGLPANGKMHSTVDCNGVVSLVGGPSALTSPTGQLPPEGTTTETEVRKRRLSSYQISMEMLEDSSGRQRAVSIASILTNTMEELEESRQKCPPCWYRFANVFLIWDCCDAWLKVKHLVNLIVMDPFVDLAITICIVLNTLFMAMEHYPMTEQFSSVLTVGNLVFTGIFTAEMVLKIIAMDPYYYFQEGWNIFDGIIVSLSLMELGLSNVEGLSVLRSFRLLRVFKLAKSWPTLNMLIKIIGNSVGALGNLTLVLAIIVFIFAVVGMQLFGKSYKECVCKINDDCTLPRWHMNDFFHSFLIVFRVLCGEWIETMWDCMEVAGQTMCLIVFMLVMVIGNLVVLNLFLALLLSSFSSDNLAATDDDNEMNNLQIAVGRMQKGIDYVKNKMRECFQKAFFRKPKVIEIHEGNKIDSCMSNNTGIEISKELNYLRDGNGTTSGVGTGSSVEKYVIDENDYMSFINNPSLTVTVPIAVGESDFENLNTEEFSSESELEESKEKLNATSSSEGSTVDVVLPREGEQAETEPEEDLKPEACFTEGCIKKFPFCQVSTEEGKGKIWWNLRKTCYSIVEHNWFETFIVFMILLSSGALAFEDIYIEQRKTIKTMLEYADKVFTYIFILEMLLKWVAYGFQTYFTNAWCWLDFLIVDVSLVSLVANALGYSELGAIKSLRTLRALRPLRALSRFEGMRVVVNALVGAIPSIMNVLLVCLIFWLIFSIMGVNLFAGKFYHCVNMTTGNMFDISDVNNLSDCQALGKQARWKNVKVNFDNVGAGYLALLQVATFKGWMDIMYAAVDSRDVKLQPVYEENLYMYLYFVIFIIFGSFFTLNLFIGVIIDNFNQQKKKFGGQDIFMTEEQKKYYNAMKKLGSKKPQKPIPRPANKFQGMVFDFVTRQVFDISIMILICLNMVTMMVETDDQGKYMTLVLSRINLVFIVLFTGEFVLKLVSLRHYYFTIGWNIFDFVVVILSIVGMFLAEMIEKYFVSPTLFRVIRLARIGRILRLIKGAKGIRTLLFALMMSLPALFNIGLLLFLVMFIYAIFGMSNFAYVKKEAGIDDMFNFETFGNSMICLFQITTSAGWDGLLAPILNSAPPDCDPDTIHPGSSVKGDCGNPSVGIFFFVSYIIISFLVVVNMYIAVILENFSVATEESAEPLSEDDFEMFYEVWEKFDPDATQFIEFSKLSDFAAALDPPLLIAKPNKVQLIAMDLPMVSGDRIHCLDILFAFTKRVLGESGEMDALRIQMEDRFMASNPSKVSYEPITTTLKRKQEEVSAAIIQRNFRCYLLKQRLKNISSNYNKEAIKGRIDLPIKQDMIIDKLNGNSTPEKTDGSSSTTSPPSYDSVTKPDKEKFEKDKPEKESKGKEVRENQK
T3 sequence (P30536 whole entry): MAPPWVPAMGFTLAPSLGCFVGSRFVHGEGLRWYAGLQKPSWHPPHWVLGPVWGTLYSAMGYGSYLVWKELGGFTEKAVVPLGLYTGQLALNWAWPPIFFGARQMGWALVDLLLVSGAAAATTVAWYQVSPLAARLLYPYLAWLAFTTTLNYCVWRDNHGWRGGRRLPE

pIC50 [1]: 6.32 | microsomal CLint [2]: 260 µL/min/mg | inhibition [7]: 51% | inhibition [8]: 33% | inhibition [9]: 29% | inhibition [10]: 14% | inhibition [11]: 51% | inhibition [12]: 33% | inhibition [13]: 32% | inhibition [14]: 57% | inhibition [15]: 47% | inhibition [16]: 58% | inhibition [20]: 26% | inhibition [21]: 54% | clearance [23]: 40 mL/min/kg | half-life [24]: 1.9 h | Cmax [25]: 750 ng/mL | Vd [26]: 1.9 L/kg | Kp [27]: 0.35 | fraction unbound [28]: 0.017 | bioavailability [29]: 4% | bioavailability [30]: 36% | pIC50 [34]: 7.10 | inhibition (Translocator protein [35]): > 60% | pIC50 (Translocator protein [36]): < 5.70
Structure (SMILES): Cc1cccc(NC(=O)c2ccc(-c3ccc(C#N)cc3)o2)c1
inhibition at 0.3 µM [3]: 74% | inhibition at 0.1 µM [4]: 41% | inhibition at 0.3 µM [5]: 52% | inhibition at 0.1 µM [6]: 38% | inhibition at 3 µM [17]: 61% | pIC50 [18]: < 5.70 | inhibition at 10 µM [19]: 74% | pIC50 [22]: 5.24 | Activity (Rattus norvegicus [31]): 86% | ED50 (Rattus norvegicus [31]; [50]): 38 mg/kg | Activity (Rattus norvegicus [32]): 21% | ED50 (Rattus norvegicus [32]; [50]): > 100 mg/kg | Activity (Rattus norvegicus [33]): 55% | ED50 (Rattus norvegicus [33]; [50]): 98 mg/kg

pIC50 [1]: 5.72 | solubility [37]: 250 µg/mL | microsomal CLint [2]: 220 µL/min/mg | bioavailability [38]: 67% | inhibition [41]: 46% | inhibition [42]: 75% | inhibition [43]: 1% | inhibition [44]: 5% | inhibition [45]: 46% | inhibition [46]: 75% | inhibition [47]: 52% | inhibition [48]: 36%
Structure (SMILES): Cc1cccc(NC(=N)c2ccc(-c3ccc(Cl)cc3)o2)c1.Cl
inhibition at 0.3 µM [3]: 45% | inhibition at 1 µM [39]: 60% | inhibition at 0.3 µM [5]: 2% | inhibition at 1 µM [40]: 10% | inhibition at 1 µM [49]: 56% | pIC50 [22]: 5.68
